# Target: T1, FXR (Homo sapiens, UniProt Q96RI1)
# T1 construct: expressed in transfected cells; host or cells: CV-1 cells
# T1 sequence (Q96RI1 1-486): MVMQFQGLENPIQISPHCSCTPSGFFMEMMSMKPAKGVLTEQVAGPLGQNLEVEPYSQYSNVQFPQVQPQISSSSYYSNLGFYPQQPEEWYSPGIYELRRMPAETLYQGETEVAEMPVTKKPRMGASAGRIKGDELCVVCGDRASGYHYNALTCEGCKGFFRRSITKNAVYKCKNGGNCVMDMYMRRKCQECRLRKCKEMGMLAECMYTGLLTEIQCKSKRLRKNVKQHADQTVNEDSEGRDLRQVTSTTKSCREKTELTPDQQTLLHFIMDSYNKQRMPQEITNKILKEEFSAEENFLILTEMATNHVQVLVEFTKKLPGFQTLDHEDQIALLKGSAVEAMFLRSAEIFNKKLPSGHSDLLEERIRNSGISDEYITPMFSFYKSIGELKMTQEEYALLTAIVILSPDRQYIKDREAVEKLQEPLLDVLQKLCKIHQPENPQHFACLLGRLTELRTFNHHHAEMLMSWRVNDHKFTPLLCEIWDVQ
# T1 sequence (P19793 1-462 partner): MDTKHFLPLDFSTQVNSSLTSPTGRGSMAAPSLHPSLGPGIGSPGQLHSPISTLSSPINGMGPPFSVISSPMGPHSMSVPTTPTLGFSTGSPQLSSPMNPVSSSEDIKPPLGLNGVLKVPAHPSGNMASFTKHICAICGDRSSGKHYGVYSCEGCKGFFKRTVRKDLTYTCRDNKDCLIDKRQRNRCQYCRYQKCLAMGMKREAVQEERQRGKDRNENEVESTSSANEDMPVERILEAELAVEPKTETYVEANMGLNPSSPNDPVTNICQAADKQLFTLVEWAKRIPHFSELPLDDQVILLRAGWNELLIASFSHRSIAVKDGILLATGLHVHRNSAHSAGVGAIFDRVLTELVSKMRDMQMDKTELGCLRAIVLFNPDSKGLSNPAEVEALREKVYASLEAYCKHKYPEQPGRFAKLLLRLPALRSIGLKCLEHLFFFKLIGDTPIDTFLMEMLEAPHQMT
# Test: In Vitro FXR Assay (TK): TK-ECRE-luc reporter in transfected CV-1 cells
# Assay type: cell-based
# Conditions: CV-1 cells transfected with hFXR, hRXR, 18 h incubation, luminescence
# Protocol: Example B-2: In Vitro FXR Assay (TK)
# CV-1 cells were seeded at a density of 2,000,000 cells in a T175 flask with DMEM+10% charcoal double-stripped FBS and incubated at 37° C. in 5% CO2 for 18 h (O/N).
# After 18 h of incubation, the medium in the T175 flask was changed with fresh DMEM+10% charcoal super-stripped serum. In a polypropylene tube, 2500 μL OptiMEM (Life Technologies, Cat #31985-062) was combined with expression plasmids for hFXR, hRXR, TK-ECRE-luc and pCMX-YFP. The tube was then briefly vortexed and incubated at room temperature for 5 minutes. Transfection reagent (X-tremeGENE HP from Roche, Cat #06 366 236 001) was added to the OptiMEM/plasmid mixture vortexed and incubated at room temperature for 20 minutes. Following incubation, the transfection reagent/DNA mixture complex was added to cells in the T175 flask and the cells were incubated at 37° C. in 5% CO2 for 18 h (O/N).
# Compounds were serially diluted in DMSO and added to transfected CV-1 cells. The cells were then incubated for 18 hrs. The next day cells were lysed and examined for luminescence.
row,SMILES,EC50 [nM]
1,"COC(=O)/C=C/c1cccc(N(Cc2ccc(-c3ccc(N(C)C)cc3)cc2)C(=O)C2CCC(SC)CC2)c1 (stereo not shown) [13.13, (E)-Methyl 3-(3-(N-((4′-(dimethylamino)-[1,1′-biphenyl]-4-yl)methyl)-4-(methylthio)cyclohexanecarboxamido)phenyl)acrylate]",1000 to 10000
2,"COC(=O)/C=C/c1cccc(N(Cc2ccc(-c3ccc(N(C)C)cc3)cc2)C(=O)C(C)(C)CCl)c1 [13.24, (E)-Methyl 3-(3-(3-chloro-N-((4′-(dimethylamino)-[1,1′-biphenyl]-4-yl)methyl)-2,2-dimethylpropanamido)phenyl)acrylate]",≤ 1000
3,"COC(=O)/C=C/c1cccc(N(Cc2ccc(-c3ccc(N(C)C)cc3)cc2)C(=O)C(C)(C)CO)c1 [13.23, (E)-Methyl 3-(3-(N-((4′-(dimethylamino)-[1,1′-biphenyl]-4-yl)methyl)-3-hydroxy-2,2-dimethylpropanamido)phenyl)acrylate]",1000 to 10000
4,"COC(=O)/C=C/c1cccc(N(Cc2ccc(-c3ccc(N(C)C)cc3)cc2)C(=O)[C@@H]2CCCC[C@H]2O)c1 (relative stereo) [13.25, trans-(E)-Methyl 3-(3-(N-((4′-(dimethylamino)-[1,1′-biphenyl]-4-yl)methyl)-2-hydroxycyclohexanecarboxamido)phenyl)acrylate]",1000 to 10000
5,"COC(=O)/C=C/c1cccc(N(Cc2ccc(-c3ccc(N(C)C)cc3)cc2)C(=O)C2CCS(=O)(=O)CC2)c1 [13.8, (E)-Methyl 3-(3-(N-((4′-(dimethylamino)-[1,1′-biphenyl]-4-yl)methyl)-1,1-dioxidotetrahydro-2H-thiopyran-4-carboxamido)phenyl)acrylate]",> 10000
6,"COC(=O)/C=C/c1cccc(N(Cc2ccc(-c3ccc(N(C)C)cc3)cc2)C(=O)[C@H]2CC[C@H](NC(=O)OC(C)(C)C)CC2)c1 [compound 96, (E)-Methyl 3-(3-(trans-4-((tert-butoxycarbonyl)amino)-N-((4′-(dimethylamino)-[1,1′-biphenyl]-4-yl)methyl)cyclohexanecarboxamido)phenyl) acrylate]",≤ 1000
7,"COC(=O)/C=C/c1cccc(N(Cc2ccc(-c3ccc(N(C)C)cc3)cc2)C(=O)c2ccccc2OC)c1 [13.7, (E)-Methyl 3-(3-(N-((4′-(dimethylamino)-[1,1′-biphenyl]-4-yl)methyl)-2-methoxybenzamido)phenyl)acrylate]",≤ 1000
8,"COC(=O)/C=C/c1cccc(N(Cc2ccc(-c3ccc(N(C)C)cc3)cc2)C(=O)[C@H]2CC[C@H](NC(=O)OC)CC2)c1 [compound 98, (E)-Methyl 3-(3-(trans-N-((4′-(dimethylamino)-[1,1′-biphenyl]-4-yl)methyl)-4-((methoxycarbonyl)amino)cyclo-hexanecarboxamido)phenyl)acrylate]",≤ 1000
9,"COC(=O)/C=C/c1cccc(N(Cc2ccc(-c3ccc(N(C)C)cc3)cc2)C(=O)[C@@H]2CCC[C@H](O)C2)c1 (relative stereo) [13.27, cis-(E)-Methyl 3-(3-(N-((4′-(dimethylamino)-[1,1′-biphenyl]-4-yl)methyl)-3-hydroxycyclohexanecarboxamido)phenyl)acrylate]",≤ 1000
10,"COC(=O)/C=C/c1cccc(N(Cc2ccc(-c3ccc(N(C)C)cc3)cc2)C(=O)c2ccc(OCCN3CCOCC3)cc2)c1 [13.12, (E)-Methyl 3-(3-(N-((4′-(dimethylamino)-[1,1′-biphenyl]-4-yl)methyl)-4-(2-morpholinoethoxy)benzamido)phenyl)acrylate]",1000 to 10000
11,"COC(=O)/C=C/c1cccc(N(Cc2ccc(-c3ccc(N(C)C)cc3)cc2)C(=O)C2CCNC(=O)C2)c1 (stereo not shown) [13.18, (E)-Methyl 3-(3-(N-((4′-(dimethylamino)-[1,1′-biphenyl]-4-yl)methyl)-2-oxopiperidine-4-carboxamido)phenyl)acrylate]",1000 to 10000
12,"COC(=O)/C=C/c1cccc(N(Cc2ccc(-c3ccc(N(C)C)cc3)cc2)C(=O)c2ccc(F)c(F)c2)c1 [13.1, (E)-Methyl 3-(3-(N-((4′-(dimethylamino)-[1,1′-biphenyl]-4-yl)methyl)-3,4-difluorobenzamido)phenyl)acrylate]",1000 to 10000

# More lines, now with the values ahead:
row,EC50 [nM],SMILES
1,1000 to 10000,"COC(=O)/C=C/c1cccc(N(Cc2ccc(-c3ccc4cnsc4c3)cc2)C(=O)C2CCCCC2)c1 [75.16, (E)-Methyl 3-(3-(N-(4-(benzo[d]isothiazol-6-yl)benzyl)cyclohexanecarboxamido)phenyl) acrylate]"
2,1000 to 10000,"COC(=O)/C=C/c1cccc(N(Cc2ccc(-c3ccc(S(C)(=O)=O)cc3F)cc2)C(=O)C2CCCCC2)c1 [75.8, (E)-Methyl 3-(3-(N-((2′-fluoro-4′-(methylsulfonyl)-[1,1′-biphenyl]-4-yl)methyl)cyclohexanecarboxamido)phenyl) acrylate]"
3,≤ 1000,"COC(=O)/C=C/c1cccc(N(Cc2ccc(-c3ccc4c(C)nsc4c3)cc2)C(=O)C2CCCCC2)c1 [75.19, (E)-Methyl 3-(3-(N-(4-(3-methylbenzo[d]isothiazol-6-yl)benzyl)cyclohexanecarboxamido)phenyl) acrylate]"
4,1000 to 10000,"COC(=O)/C=C/c1cccc(N(Cc2ccc(-c3ccc4sncc4c3)cc2)C(=O)C2CCCCC2)c1 [75.17, (E)-Methyl 3-(3-(N-(4-(benzo[d]isothiazol-5-yl)benzyl)cyclohexanecarboxamido)phenyl) acrylate]"
5,1000 to 10000,"COC(=O)/C=C/c1cccc(N(Cc2ccc(-c3ccc(S(C)(=O)=O)cc3)cc2)C(=O)C2CCCCC2)c1 [62.4, (E)-Methyl 3-(3-(N-((4′-(methylsulfonyl)-[1,1′-biphenyl]-4-yl)methyl)cyclohexanecarboxamido)phenyl) acrylate]"
6,> 10000,"CC(C)COC(=O)/C=C/c1cccc(N(Cc2ccc(-c3ccc(N(C)C)cc3)cc2)C(=O)C2CCCCC2)c1 [86.2, (E)-Isobutyl 3-(3-(N-((4′-(dimethylamino)-[1,1′-biphenyl]-4-yl)methyl)cyclohexanecarboxamido)phenyl) acrylate]"
7,> 10000,"COC(=O)/C=C/c1cccc(N(Cc2ccc(-c3ccc4cnoc4c3)cc2)C(=O)C2CCCCC2)c1 [75.13, (E)-Methyl 3-(3-(N-(4-(benzo[d]isoxazol-6-yl)benzyl)cyclohexanecarboxamido)phenyl) acrylate]"
8,1000 to 10000,"COC(=O)/C=C/c1cccc(N(Cc2ccc(NCc3ccccc3)cc2)C(=O)C2CCCCC2)c1 [compound 102, (E)-Methyl 3-(3-(N-(4-(benzylamino)benzyl)cyclohexane-carboxamido)phenyl)acrylate]"
9,≤ 1000,"COC(=O)/C=C/c1cccc(N(Cc2ccc(-c3ccc4c(c3)OCO4)cc2)C(=O)C2CCCCC2)c1 [62.9, (E)-Methyl 3-(3-(N-(4-(benzo[d][1,3]dioxol-5-yl)benzyl)cyclohexanecarboxamido)phenyl) acrylate]"
10,≤ 1000,"COC(=O)/C=C/c1cccc(N(Cc2ccc(-c3ccc4scnc4c3)cc2)C(=O)C2CCCCC2)c1 [75.14, (E)-Methyl 3-(3-(N-(4-(benzo[d]thiazol-5-yl)benzyl)cyclohexanecarboxamido)phenyl) acrylate]"
11,1000 to 10000,"COC(=O)/C=C/c1cccc(N(Cc2ccc(-c3ccc4ocnc4c3)cc2)C(=O)C2CCCCC2)c1 [75.11, (E)-Methyl 3-(3-(N-(4-(benzo[d]oxazol-5-yl)benzyl)cyclohexanecarboxamido)phenyl) acrylate]"
12,> 10000,"COC(=O)/C=C/c1cccc(N(Cc2ccc(N(C)Cc3ccccc3)cc2)C(=O)C2CCCCC2)c1 [compound 103, (E)-Methyl 3-(3-(N-(4-(benzyl(methyl)amino)benzyl)cyclo-hexanecarboxamido)phenyl)acrylate]"
13,1000 to 10000,"COC(=O)/C=C/c1cccc(N(Cc2ccc(-c3cccc(CO)c3)cc2)C(=O)C2CCCCC2)c1 [62.6, (E)-Methyl 3-(3-(N-((3′-(hydroxymethyl)-[1,1′-biphenyl]-4-yl)methyl)cyclohexanecarboxamido)phenyl) acrylate]"
